4 molecules from patent US9958436B2, “Determination of cell chirality” (THE TRUSTEES OF COLUMBIA UNIVERSITY IN THE CITY OF NEW YORK, priority 2011, dated 2018) can be followed below.

Assay [1] deals with C2C12 cells. The experiment in a line: Effects of culture conditions (substrate protein coating, calcium chelator) on cell chirality. In kind it is cell-based, mouse. Conditions: count of rings. How it is done: An adhesive SAM octadecanethiol (Sigma) was transferred onto the gold-coated (150 Å in thickness) glass slide with the PDMS stamp (see e.g., FIG. 1) (L. Q. Wan et al., Integr Biol (Camb) 2, 346 (Aug. 10, 2010)). The slide was then immersed in a non-adhesive ethylene glycol-terminated SAM (HS-(CH2)11-EG3, Prochimia, Poland) for 3 hours. Finally, patterned surfaces were washed with ethanol and coated with 10 μg/ml fibronectin (Sigma) for 30 minutes.
(§1) Cells were maintained in tissue flasks with culture media specified in TABLE 2. After reaching 70% confluency, cells were trypsinized and seeded onto protein-coated patterned surfaces. Once the cells attached, extra cells were washed off with fresh medium. At this time drugs were added into the culture medium if necessary. Phase contrast images were taken after overnight incubation at 37° C. and 5% CO2 when cells reached confluency on the ring patterns.
(§2) High-resolution phase contrast images of live patterned cells were taken at a resolution of ˜0.645 μm/pixel, and analyzed using a custom-written code in MatLab (MathWorks, Natick, Mass.), based on the automated detection of intensity gradient and circular statistics (W. J. Karlon et al., Ann Biomed Eng 27, 712 (November-December, 1999)). In this algorithm, the intensity gradient was determined pixel by pixel with a Gaussian differential filter. In each sub-region of the image, the dominant local direction was determined using an accumulator scheme, in which the orientation of each pixel follows a von Mises distribution, a circular analogue of the linear normal distribution. Subsequently, the orientation in each sub-region was converted into an angle bias based on its deviation from the circumferential direction (see e.g., FIG. 2C). Mean angle and standard deviation of LR asymmetry were calculated for all sub-regions, using circular statistics (N. I. Fish, Statistical Analysis of Circular Data. (Cambridge University Press, Cambridge, UK, 1993)). […] The sub-region size was therefore set to 20 by 20 pixels (i.e., 13 by 13 μm).
(§3) Cell chirality on ring patterns (i.e., clockwise or counterclockwise alignment) was determined from calculated biased angles in local regions with one sample test for the mean angle, analogous to the one sample t-test in linear statistics (N. I. Fish, Statistical Analysis of Circular Data. (Cambridge University Press, Cambridge, UK, 1993)).
The geometric boundaries determined organelle positioning (i.e., x-axis), with centrosomes (bright green, see e.g., FIG. 4B) and Golgi apparatus (red, see e.g., FIG. 4C) being positioned closer to the boundaries than the cell nucleus (blue) (R. A. Desai, L. Gao, S. Raghavan, W. F. Liu, C. S. Chen, J Cell Sci 122, 905 (Apr. 1, 2009)), independent of the gravitational direction. In addition, cell chirality was maintained on patterns with different surface chemistry, and after the disruption of cadherin function (see e.g., FIG. 1, TABLE 6, TABLE 7).

For assay [2], the system named is C2C12 cells. The experiment in a line: Cell chirality (alignment) on micropatterned rings, drug treatment, C2C12. It counts as cell-based, mouse. Conditions: for CCW: counter-clockwise alignment / CW: clockwise alignment / N/S: not significantly biased to CW or CCW: C2C12 on ring patterns, count of rings. How it is done: as §1
(§4) To examine the role of actin in left-right (LR) asymmetry, cells were tested with 20-500 nM Latrunculin A, 0.05-1.0 μg/ml Cytochalasin D, and 1-100 nM Jasplakinolide. Latrunculin A inhibits actin polymerization by forming a 1:1 molar complex with G-actin, thereby inhibiting its ability to polymerize into F-actin (M. Coue, S. L. Brenner, I. Spector, E. D. Korn, FEBS Lett 213, 316 (Mar. 23, 1987)). Cytochalasin D inhibits actin polymerization by binding to the growing ends of F-actin chains and thus preventing the attachment and addition of G-actin monomers (J. A. Cooper, J Cell Biol 105, 1473 (October, 1987)). Jasplakinolide is known to bind to and stabilize actin filaments in vitro (M. R. Bubb, I. Spector, B. B. Beyer, K. M. Fosen, J Biol Chem 275, 5163 (Feb. 18, 2000)).
(§5) To examine the role of microtubules in LR asymmetry, 0.2-2 μM Nocodazole, and 0.3-30 nM Taxol were used. Nocodazole suppresses microtubule dynamics by destabilizing and disassembling microtubules (J. A. Cooper, J Cell Biol 105, 1473 (October, 1987)). Taxol inhibits the microtubule depolymerization and stabilizes microtubules (W. B. Derry, L. Wilson, M. A. Jordan, Biochemistry 34, 2203 (Feb. 21, 1995)).
To examine the role of the actomyosin motor, cells were tested with […], […], and 0.5-10 […]. Y-27632 works as a selective inhibitor to prevent the phosphorylation of the myosin regulatory light chain (T. Ishizaki et al., Mol Pharmacol 57, 976 (May, 2000)). ML-7 acts as a selective inhibitor of the myosin light chain kinase (M. Isemura, T. Mita, K. Satoh, K. Narumi, M. Motomiya, Cell Biol Int Rep 15, 965 (October, 1991)). Blebbistatin forms a low actin affinity complex through binding to myosin heads, causing the inhibition of nonmuscle myosin II ATPase activity (M. Kovacs, J. Toth, C. Hetenyi, A. Malnasi-Csizmadia, J. R. Sellers, J Biol Chem 279, 35557 (Aug. 20, 2004)).
as §2, §3

The subject of assay [3] is hUVEC cells. The experiment in a line: Cell chirality (alignment) on micropatterned rings, drug treatment, hUVEC. It counts as cell-based, human. The following applies: hUVEC on ring patterns, count of rings. How it is done:
as §1, §4, §5, §2, §3

Where [4] appears, read: calcium chelator added to culture, 0.5 mM.
Setting [5] is: calcium chelator added to culture, 2 mM.
Setting [6] is: substrate protein coating of the pattern.

On to `O=C(O)CN(CCOCCOCCN(CC(=O)O)CC(=O)O)CC(=O)O` [EGTA], for which, in assay [1] (setting [4]), the “CCW: counter-clockwise alignment” value is listed as 24, the “CW: clockwise alignment” value came out at 0 and the “N/S: not significantly biased to CW or CCW” value (from here on “N/S: not significantly biased”) is 2. Also, in assay [1] (setting [5]), the “CCW: counter-clockwise alignment” value was found to be 12, the “CW: clockwise alignment” value was determined as 1 and the “N/S: not significantly biased” value came to 3.
Take `CC(=O)O[C@H]1C(=O)[C@@]2(C)[C@H]([C@H](OC(=O)c3ccccc3)[C@]3(O)C[C@H](OC(=O)[C@H](O)[C@@H](NC(=O)c4ccccc4)c4ccccc4)C(C)=C1C3(C)C)[C@]1(OC(C)=O)CO[C@@H]1C[C@@H]2O` [Taxol]: the “effect on cell chirality” value in assay [2] (C2C12, inhibitors of tubulin dynamics at concentrations below those resulting in cell apoptosis) was “did not change cell chirality”. Moreover, the “CCW: counter-clockwise alignment” value in assay [2] (drug 0.3 nM) is given as 24; in assay [2] (drug 1 nM) it was 20; in assay [2] (drug 3 nM), 31; in assay [2] (drug 10 nM), 17; in assay [2] (drug 30 nM) it was 16; in assay [3] (drug 0.3 nM), 0. Besides, the “CCW: counter-clockwise alignment” value amounted to 1 in assay [3] (drug 1 nM), 2 in assay [3] (drug 3 nM), 5 in assay [3] (drug 10 nM) and 2 in assay [3] (drug 30 nM). For the same molecule, the “CW: clockwise alignment” value in assay [2] (drug 0.3 nM) was 1; in assay [2] (drug 1 nM) it was 1; in assay [2] (drug 3 nM), 2; in assay [2] (drug 10 nM) it was 2; in assay [2] (drug 30 nM) it was 2; in assay [3] (drug 0.3 nM), 8. Besides, the “CW: clockwise alignment” value in assay [3] (drug 1 nM) amounted to 34; in assay [3] (drug 3 nM), 7; in assay [3] (drug 10 nM), 10; in assay [3] (drug 30 nM), 4. Besides, the “N/S: not significantly biased” value in assay [2] (drug 0.3 nM) was 3; in assay [2] (drug 1 nM) it was 6; in assay [2] (drug 3 nM), 9; in assay [2] (drug 10 nM) it was 8; in assay [2] (drug 30 nM) it was 13; in assay [3] (drug 0.3 nM), 0. For the same molecule, the “N/S: not significantly biased” value in assay [3] (drug 1 nM) worked out at 4; in assay [3] (drug 3 nM) it was 9; in assay [3] (drug 10 nM) it was 11; in assay [3] (drug 30 nM), 7.
Turning to Fibronectin, in assay [1] (setting [6]), the “CCW: counter-clockwise alignment” value is 32, the “CW: clockwise alignment” value is recorded as 1 and the “N/S: not significantly biased” value was 4.
On to Laminin, for which, in assay [1] (setting [6]), the “CCW: counter-clockwise alignment” value was found to be 34, the “CW: clockwise alignment” value was 2 and the “N/S: not significantly biased” value was 2.
